Legend:
[1] = tested on: HepaRG cells and PRH; design: method as in Yang et al. 2020; conditions: 50 µM ES or 1′OH-ES; ref Yang et al. 2020; cited from earlier work
[2] = tested on: HepG2 cells; conditions: 24 h
Procedure: γH2AX and p53 levels were assessed by SDS-PAGE and western blotting as reported (Fahrer et al. [2013]). To this end, 5 × 10^5 cells were seeded in 3.5-cm dishes to adhere overnight. […] Proteins were separated by SDS-PAGE followed by the transfer onto a nitrocellulose membrane using the wet blot method. The successful transfer was confirmed by Ponceau S staining of the membrane before blocking with 5% non-fat dry milk in Tris-buffered saline with Tween-20 (MP-TBS-T). Subsequently, the membrane was incubated with the respective primary antibodies overnight at 4 °C. The membranes were washed three times for 5 min with TBS-T before incubating with the respective secondary antibody coupled with horseradish peroxidase. The detection was carried out using the Western Lightning Plus-ECL reagent (Perkin Elmer, Waltham MA, USA) with the c300 chemiluminescence imager (Azure Biosystems, Dublin CA, USA). The used primary and secondary antibodies are detailed in supplementary Table S3.

[3] = tested on: HepG2-CYP1A2 cells; conditions: ES 24 h + 72 h recovery; not statistically significant; concentration not given
Procedure: Following the recovery time, the cells were detached, harvested by centrifugation (300 g, 5 min), and washed with PBS. […] The fluorescent dye was then activated by photolysis (60 W lightbulb, 30 cm spacing) for 20 min before addition of 9 mL PBS to remove unbound dye. […] 1.5 × 10^4 cells were analysed using the BD FACSDiva software (BD Biosciences, Heidelberg, Germany). A schematic overview of the gating strategy is provided in the supporting information, Fig. 3.

[4] = tested on: HepG2-CYP1A2 cells; experiment: Alkaline comet assay (DNA strand breaks) in HepG2-CYP1A2 cells; conditions: 24 h
Procedure: As a positive control, tBuOOH (20 min, 200 µM) was used. Subsequently, the alkaline comet assay was performed to quantify DNA strand breaks as previously described (Haas et al. [2023b]). Per sample, at least 50 comets were counted with Comet IV software (Instem, Staffordshire, UK) using a Zeiss Axio Observer 7 microscope equipped with an Axiocam 305 mono and ZEN 3.2 software (Carl Zeiss, Jena, Germany).

Row | SMILES | E3′-N^2-dG levels vs ES [1] | γH2AX increase ([2]; 5 µM 1′OH-ES) | p53 induction ([2]; 50 µM 1′OH-ES) | γH2AX induction ([2]; 50 µM 1′OH-ES) | MN formation, increase vs. solvent control (flow cytometry) [3] | DNA strand breaks (alkaline comet assay) ([4]; 2 mM ES, vs solvent control) | DNA strand breaks (alkaline comet assay) ([4]; up to 2 mM ES)
1 | C=CC(O)c1ccc(OC)cc1 (stereo not shown) [1′OH-ES, 1′-hydroxyestragole] | 33–40 fold | 2.2 fold | sevenfold | 4.8 fold |  |  | 
2 | C=CCc1ccc(OC)cc1 [ES, estragole] |  |  |  |  | 1.6 fold | small but not statistically significant increase | did not elicit an increase of DNA strand break levels

— paper PMC12408683 (Archives of Toxicology, 2025)
